Reference: patent US11339193B2, “CDP protein secretion inhibitors” (KEZAR LIFE SCIENCES, priority 2018, dated 2022)
Numbered stars: 1 amine (or outer) side, 2 acyl side, 3 side chain; on linkers, the order of the positions; unused ones are H or OH. Square brackets hold non-standard residues; d marks the D form. Peptide text beside a SMILES is read from it. NMeAla(5-Cl-benzothien-3-yl) = CN[C@@H](Cc1csc2ccc(Cl)cc12)C(=O)O; Butanoyl(2R-oxy,4-CN) = N#CCC[C@@H](O)C(=O)O; NMe3Pal(5-F) = CN[C@@H](Cc1cncc(F)c1)C(=O)O; X22 = CCCC[C@@H](C)C[C@H](N[*:1])C(=O)[*:2]; NMePhe(4-F) = CN[C@@H](Cc1ccc(F)cc1)C(=O)O; X28 = CCCC[C@H](C)C[C@H](N[*:1])C(=O)[*:2]; X12 = O=C([C@H](CC1=CCCC1)N[*:1])[*:2]; NMeL = CN[C@@H](CC(C)C)C(=O)O; NMeA = CN[C@@H](C)C(=O)O; dLac = C[C@@H](O)C(=O)O

Tests used:
Type in all cases: cell-based
[1] = tested on: PD1-ss+10aa/Gaussia Luciferase; assay: Dox induced PD1-ss-Gluc assay; conditions: Flp-In 293 T-REx cells, doxycycline, 24 hours; read-out: PD1ss Gluc IC50
Procedure, shortened: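 Stable Flp-In 293 T-REx line expressing doxycycline-inducible Gaussia luciferase fused to the PD1 signal sequence plus 10 amino acids. Cells plated the day before, then exposed to compound dilutions in DMSO/media containing doxycycline at 37 °C, 5% CO2.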

[2] = tested on: VCAMss+10aa/Gaussia Luciferase; assay: VCAM-ss-Gluc assay (constitutively active or Dox induced); conditions: Flp-In 293 T-REx cells, 24 hours
Experimental: Assays Constitutively Active VCAM-ss-Gluc Assay
(§1) Transfected cells were selected for resistance to the selectable markers Hygromycin and Blasticidin to create a stable cell line that constitutively expressed the VCAMss+ 10aa/Gaussia Luciferase fusion protein. The day before assay, cells were trypsinized and plated in 384-well tissue culture plates. The next day, culture media was removed from the wells and replaced with fresh media. Compound dilutions in DMSO/media were added to the wells and incubated at 37° C., 5% CO2.
Dox Induced VCAM-ss-Gluc Assay
(§2) Transfected cells were selected for resistance to the selectable markers Hygromycin and Blasticidin to create a stable cell line that contained the VCAMss+10aa/Gaussia Luciferase cDNA insert whose expression was regulated under the T-REx™ system. The day before assay, cells were trypsinized and plated in 384-well tissue culture plates. The next day, compound dilutions in DMSO/media containing doxycycline were added to the wells and incubated at 37° C., 5% CO2.

[3] = tested on: U266B1 multiple myeloma cell line; assay: U266 assay (cell viability, Celltiter-Glo); conditions: Homo sapiens, U-266
Experimental: Cells were plated in 384-well tissue culture plates and treated with compound dilutions in DMSO/media. Plates were incubated at 37° C., 5% CO2 for 48 hours. After 48 hours, Celltiter-Glo@ (Promega) was added to each well and luciferase signal was quantified using Tecan Infinite M1000 Pro for cell viability determination.

[4] = tested on: NCI-H929 multiple myeloma cell line; assay: H929 assay (cell viability, Celltiter-Glo); conditions: Homo sapiens, NCI-H929; 48 hours, cell viability; read-out: H929 EC50
Procedure, shortened: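 Cells plated in RPMI 1640 with 10% FBS and 2 mM glutamine, treated with compound dilutions in DMSO/media. Incubation 48 h at 37° C, 5% CO2. Viability from luciferase luminescence signal.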

[5] = tested on: TNFα-FL/Gaussia Luciferase; assay: Dox induced TNFα-FL-Gluc assay; conditions: Flp-In 293 T-REx cells, doxycycline, 24 hours; read-out: TNFa FL Gluc IC50
Procedure, shortened: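 Stable Flp-In 293 T-REx line expressing full-length TNFα (aa 1-233) fused at its C-terminus to Gaussia luciferase under doxycycline-inducible control. Cells plated the day before, then given compound dilutions in DMSO/media containing doxycycline and incubated at 37 °C, 5% CO2.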

[6] = tested on: Prl-ss+10aa/Gaussia Luciferase; assay: Prl-ss-Gluc assay (constitutively active or 24 hr Dox inducible); conditions: Flp-In 293 T-REx cells, 24 hours; read-out: Prl IC50
From the text: Constitutively Active Prl-ss-Gluc Assay
as §1, with “Flp-In 293 T-REx™ cells were transfected with pcDNA™5/FRT plasmid inserted with cDNA encoding Gaussia Luciferase fused to the 3′ end of cDNA encoding Prl signal sequence plus 10 amino acids (N-[…]-C) (SEQ ID NO:4). Transfected” for “Transfected”, “Prlss+10aa/Gaussia” for “VCAMss+ 10aa/Gaussia”
24 hr Dox Inducible Prl-ss-Gluc Assay
as §2, with “Flp-In 293 T-REx™ cells were transfected with pcDNA™5/FRT/TO plasmid inserted with cDNA encoding Gaussia Luciferase fused to the 3′ end of cDNA encoding Prl signal sequence plus 10 amino acids (N-[…]-C) (SEQ ID NO:5). Transfected” for “Transfected”, “Prl-ss+10aa/Gaussia” for “VCAMss+10aa/Gaussia”

HER3ss-Gluc = assay: HER3ss assay; conditions: HEK-293T T-rex cells, transient transfection, doxycycline, 24 h; read-out: HER3 ss IC50
Experimental: The mature domain of secreted luciferase from Gaussia princeps (GLuc) was cloned into pcDNA5/FRT/TO. The signal sequence plus four amino acids of the mature domain from HER3 ([…]) (SEQ ID NO:8) were cloned upstream of GLuc mature domain and used in transient transfection experiment. HEK-293T T-rex cells were cultured in Dulbecco's modified Eagle's medium with 10% FBS at 5% CO2. Cells were plated 1×10e6 cells per well in a 6-well plate and incubated for 6 h. Cells were transiently transfected with HER3ss-Gluc using Lipofectamine 2000 (Invitrogen). After overnight incubation, transfected cells were replated in a clear-bottomed, black 96-well plate at a density of 20,000 cells per well. Six hours after plating, the cells were treated with doxycycline (1 μg/ml) and increasing concentrations of the indicated compounds for 24 h. Secreted luciferase in the conditioned media was quantified by luminescence using the BioLux Gaussia Luciferase Assay Kit (New England Biolabs, Ipswich, Mass., USA) and a SpectraMax M5 plate reader (Molecular Devices).

[7] = tested on: BT474 breast tumor cell line; assay: BT474 assay (Alamar blue); conditions: Homo sapiens, BT-474, 72 h
Experimental: (§3) BT474 is a human breast tumor cell line. JJN3 is a human plasma cell leukemia cell line. […] Cells were seeded at 100 000 cells/mL. Aliquots of 5000 cells (50 μL) were added to each well in black, clear bottom 96-well plates. Compounds or control (50 uL of 1% DMSO in cell culture medium) were added to the cells to the indicated final concentrations and cells were incubated for 72 h (unless otherwise specified). After incubation was complete, Alamar blue (10 uL of a 1 mg/mL solution) was added to each well and plates were incubated for 5 h. Fluorescence was then measured (excitation 545 nm, emission 590 nm) and is reported as […] normalized to DMSO control.

[8] = tested on: JJN3 plasma cell leukemia cell line; assay: JJN-3 assay (Alamar blue); conditions: Homo sapiens, 72 h
Experimental: as §3

IC50 [1] [µM] | IC50 [2] [µM] | EC50 ([3]; 48 hours, cell viability) [µM] | EC50 [4] [µM] | IC50 [5] [µM] | IC50 [6] [µM] | IC50 (HER3ss-Gluc) [µM] | EC50 [7] [µM] | EC50 ([3]; I.A.) [µM] | Structure (SMILES) | EC50 [8] [µM]
0.086 | 0.022 | 5.54 | 1.48 | 0.131 | 1.66 |  |  |  | CCCC[C@@H](C)C[C@@H]1NC(=O)[C@H](Cc2cncc(F)c2)N(C)C(=O)[C@H](CC(C)C)NC(=O)[C@H](CC(C)C)N(C)C(=O)[C@H](C[C@H](C)CCCC)NC(=O)[C@@H](CCC#N)OC(=O)[C@H](C)N(C)C1=O [C-24] (cyclo(L[NMe3Pal(5-F)][X22][NMeA][Butanoyl(2R-oxy,4-CN)][X22][NMeL])) | 
0.203 |  |  | 4.72 | 1.05 | 14.2 | 0.161 | 5.28 |  | COc1ccccc1Cn1cc(C[C@H]2C(=O)N[C@@H](CC(C)C)C(=O)N(C)[C@@H](C)C(=O)O[C@H](CCC#N)C(=O)N[C@@H](CC(C)C)C(=O)N(C)[C@@H](CC(C)C)C(=O)N[C@@H](CC(C)C)C(=O)N2C)c2ccccc21 [C-32] (HELM PEPTIDE1{L.[meA].[N#CCC[C@@H](O[*:1])C(=O)[*:2]].L.[meL].L.[COc1ccccc1Cn1cc(C[C@@H](C(=O)[*:2])N(C)[*:1])c2ccccc21]}$PEPTIDE1,PEPTIDE1,1:R1-7:R2$$$V2.0) | 
 | 1.7 |  |  |  |  |  |  |  | CCCC[C@H](C)C[C@@H]1NC(=O)[C@H](Cc2ccc(F)cc2)N(C)C(=O)[C@H](CC(C)C)NC(=O)[C@H](CC(C)C)N(C)C(=O)[C@H](CC(C)C)NC(=O)[C@@H](C)OC(=O)[C@H](C)N(C)C1=O [C-69] (cyclo(L[NMeL]L[NMePhe(4-F)][X28][NMeA][dLac])) | 
1.05 | 0.274 |  | 6.54 |  |  | 0.963 |  |  | CC(C)C[C@@H]1NC(=O)[C@H](Cc2ccccc2)N(C)C(=O)[C@H](CC(C)C)NC(=O)[C@H](CC(C)C)N(C)C(=O)[C@H](CC(C)C)NC(=O)[C@@H](C)OC(=O)[C@H](C)N(C)C1=O [C-34] (HELM PEPTIDE1{L.[meA].[C[C@@H](O[*:1])C(=O)[*:2]].L.[meL].L.[meF]}$PEPTIDE1,PEPTIDE1,1:R1-7:R2$$$V2.0) | 
0.149 | 0.014 | 9.13 | 2.2 | 0.274 | 6.34 |  |  |  | CCCC[C@@H](C)C[C@@H]1NC(=O)[C@H](Cc2ccc(F)cn2)N(C)C(=O)[C@H](CC(C)C)NC(=O)[C@H](CC(C)C)N(C)C(=O)[C@H](C[C@H](C)CCCC)NC(=O)[C@@H](CCC#N)OC(=O)[C@H](C)N(C)C1=O [C-17] | 
 | 0.327 |  |  |  |  | 0.226 |  |  | CC(C)C[C@@H]1NC(=O)[C@H](Cc2cn(Cc3ccccc3)c3ccccc23)N(C)C(=O)[C@H](CC(C)C)NC(=O)[C@H](CC(C)C)N(C)C(=O)[C@H](CC(C)C)NC(=O)[C@@H](C)OC(=O)[C@H](C)N(C)C1=O [C-72] (HELM PEPTIDE1{L.[meA].[C[C@@H](O[*:1])C(=O)[*:2]].L.[meL].L.[CN([C@@H](Cc1cn(Cc2ccccc2)c2ccccc12)C(=O)[*:2])[*:1]]}$PEPTIDE1,PEPTIDE1,1:R1-7:R2$$$V2.0) | 
 | 3.15 |  |  |  |  |  |  |  | CC(C)C[C@@H]1NC(=O)[C@H](Cc2cn(Cc3ccccc3)nn2)N(C)C(=O)[C@H](CC(C)C)NC(=O)[C@H](CC(C)C)N(C)C(=O)[C@H](CC(C)C)NC(=O)[C@@H](CCC#N)OC(=O)[C@H](C)N(C)C1=O [C-73] | 
 |  |  |  |  |  |  |  |  | CC(C)C[C@@H]1NC(=O)[C@H](Cc2cn(Cc3ccc(F)cc3)c3ccccc23)N(C)C(=O)[C@H](CC(C)C)NC(=O)[C@H](CC(C)C)N(C)C(=O)[C@H](CC(C)C)NC(=O)[C@@H](C)OC(=O)[C@H](C)N(C)C1=O [C-30] (HELM PEPTIDE1{L.[meA].[C[C@@H](O[*:1])C(=O)[*:2]].L.[meL].L.[CN([C@@H](Cc1cn(Cc2ccc(F)cc2)c2ccccc12)C(=O)[*:2])[*:1]]}$PEPTIDE1,PEPTIDE1,1:R1-7:R2$$$V2.0) | 14.2
 | 0.354 |  |  |  |  | 0.445 |  |  | CC(C)C[C@@H]1NC(=O)[C@H](Cc2c[nH]c3ccccc23)N(C)C(=O)[C@H](CC(C)C)NC(=O)[C@H](CC(C)C)N(C)C(=O)[C@H](CC(C)C)NC(=O)[C@@H](CCC#N)OC(=O)[C@H](C)N(C)C1=O [C-71] (HELM PEPTIDE1{L.[meA].[N#CCC[C@@H](O[*:1])C(=O)[*:2]].L.[meL].L.[meW]}$PEPTIDE1,PEPTIDE1,1:R1-7:R2$$$V2.0) | 
0.259 |  |  | 4 | 0.889 | 17.9 | 0.035 |  | > 25 | CC(C)C[C@@H]1NC(=O)[C@H](Cc2csc3ccc(Cl)cc23)N(C)C(=O)[C@H](CC(C)C)NC(=O)[C@H](CC(C)C)N(C)C(=O)[C@H](CC2=CCCC2)NC(=O)[C@@H](CCC#N)OC(=O)[C@H](C)N(C)C1=O [C-98] (cyclo(L[NMeA][Butanoyl(2R-oxy,4-CN)][X12][NMeL]L[NMeAla(5-Cl-benzothien-3-yl)])) | 

Structure (SMILES) | IC50 [1] [µM] | IC50 [2] [µM] | EC50 ([3]; 48 hours, cell viability) [µM] | EC50 [4] [µM] | IC50 [5] [µM] | IC50 [6] [µM] | IC50 (HER3ss-Gluc) [µM] | EC50 [7] [µM] | EC50 ([3]; I.A.) [µM] | EC50 [8] [µM]
COc1ccc(Cn2cc(C[C@H]3C(=O)N[C@@H](CC(C)C)C(=O)N(C)[C@@H](C)C(=O)O[C@H](C)C(=O)N[C@@H](CC(C)C)C(=O)N(C)[C@@H](CC(C)C)C(=O)N[C@@H](CC(C)C)C(=O)N3C)c3ccccc32)cc1 [C-11] (HELM PEPTIDE1{L.[meA].[C[C@@H](O[*:1])C(=O)[*:2]].L.[meL].L.[COc1ccc(Cn2cc(C[C@@H](C(=O)[*:2])N(C)[*:1])c3ccccc32)cc1]}$PEPTIDE1,PEPTIDE1,1:R1-7:R2$$$V2.0) | 0.052 | 2.09 | 23.7 | 2.56 | 0.295 | 4.5 |  |  |  | 0.792
